Patent US11897851B2, “Heterocyclic GLP-1 agonists” (Gasherbrum Bio, Inc., priority 2021, dated 2024)

These compounds were tested against T1, GLP-1 Receptor (Homo sapiens, UniProt P43220) (assay: GLP-1R agonist cAMP stimulation assay (HEK293/GLP1R/CRE-LUC cells, Cisbio cAMP dynamic 2 kit)). Conditions: HEK293/CRE-Luc cell line stably expressing the GLP-1 Receptor; 1000 cells/well; 30 min at 37° C.; 0.5 mM IBMX, 0.1% BSA; read-out: GLP1R cAMP Stimulation DR: EC50.
T1 construct: host or cells: HEK293/GLP1R/CRE-LUC (HEK293/CRE-Luc stably expressing the GLP-1 receptor)
Format: cell-based
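Further: compounds tested in half-log serial dilution, cAMP detected with cAMP-d2 and anti-cAMP cryptate antibody reagents after 1 h at room temperature.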

T1 sequence (P43220 24-463, species assumed): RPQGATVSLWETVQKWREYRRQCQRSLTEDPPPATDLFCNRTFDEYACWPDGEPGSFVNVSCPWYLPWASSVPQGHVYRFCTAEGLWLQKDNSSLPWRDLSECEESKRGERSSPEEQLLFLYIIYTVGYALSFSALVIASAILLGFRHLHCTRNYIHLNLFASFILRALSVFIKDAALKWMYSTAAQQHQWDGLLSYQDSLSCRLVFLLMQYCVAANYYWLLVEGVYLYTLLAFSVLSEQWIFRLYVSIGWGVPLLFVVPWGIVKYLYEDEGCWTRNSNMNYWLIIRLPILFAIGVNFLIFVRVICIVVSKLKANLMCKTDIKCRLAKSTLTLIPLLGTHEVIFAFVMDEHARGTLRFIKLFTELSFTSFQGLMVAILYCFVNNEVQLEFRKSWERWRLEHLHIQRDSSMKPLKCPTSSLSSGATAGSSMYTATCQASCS

EC50 [nM] | Structure (SMILES)
0.53 | COCCc1cc(-c2nnc(C(F)(F)F)[nH]2)cnc1CN1CCC(c2cccc3c2O[C@@](C)(c2ccc(Cl)cc2F)O3)CC1 [Compound 259, 2-({4-[(2S)-2-(4-chloro-2-fluorophenyl)-2-methyl-2H-1,3-benzodioxol-4-yl]piperidin-1-yl}methyl)-3-(2-methoxyethyl)-5-[5-(trifluoromethyl)-4H-1,2,4-triazol-3-yl]pyridine]
0.0054 | C[C@]1(c2ccc(Cl)cc2F)Oc2cccc(C3CCN(Cc4ncc(/C=C/C(=O)O)n4C[C@H]4CCOC4)CC3)c2O1 [Compound 155, (E)-3-(2-((4-((S)-2-(4-chloro-2-fluorophenyl)-2-methylbenzo[d][1,3]dioxol-4-yl)piperidin-1-yl)methyl)-1-(((R)-tetrahydrofuran-3-yl)methyl)-1H-imidazol-5-yl)acrylic acid]
5.4 | C/C(=C\c1cnc(CN2CCC(c3cccc4c3O[C@@H](c3ccc(Cl)cc3)O4)CC2)n1C[C@@H]1CCO1)C(=O)O [Compound 133a, (E)-3-(2-((4-((S)-2-(4-chlorophenyl)benzo[d][1,3]dioxol-4-yl)piperidin-1-yl)methyl)-1-(((S)-oxetan-2-yl)methyl)-1H-imidazol-5-yl)-2-methylacrylic acid]
0.015 | C[C@H](Cn1c(/C=C/C(=O)O)cnc1CN1CCC(c2cccc3c2O[C@@](C)(c2ccc(Cl)cc2F)O3)CC1)OC(F)F [Compound 169b, (E)-3-(2-((4-((S)-2-(4-chloro-2-fluorophenyl)-2-methylbenzo[d][1,3]dioxol-4-yl)piperidin-1-yl)methyl)-1-((R)-2-(difluoromethoxy)propyl)-1H-imidazol-5-yl)acrylic acid]
0.15 | CCn1cncc1Cn1c(CCC(=O)O)cnc1CN1CCC(c2cccc3c2OC[C@@H](c2ccc(Cl)cc2)O3)CC1 [Compound 245, (R)-3-(2-((4-(2-(4-chlorophenyl)-2,3-dihydrobenzo [b][1,4]dioxin-5-yl)piperidin-1-yl)methyl)-1-((1-ethyl-1H-imidazol-5-yl)methyl)-1H-imidazol-5-yl)propanoic acid]
0.023 | CCn1cncc1Cn1c(CCC(=O)O)cnc1CN1CCC(c2cccc(OCc3ccc(Cl)cc3F)n2)CC1 [Compound 244, 3-(2-((4-(6-((4-chloro-2-fluorobenzyl)oxy)pyridin-2-yl)piperidin-1-yl)methyl)-1-((1-ethyl-1H-imidazol-5-yl)methyl)-1H-imidazol-5-yl)propanoic acid]
0.0059 | CCn1cncc1Cn1c(CCC(=O)O)cnc1CN1CCC(c2cccc3c2OC(C)(c2ccc(Cl)cc2F)O3)CC1 (stereo not shown) [Compound 143, 3-(2-((4-(2-(4-chloro-2-fluorophenyl)-2-methylbenzo[d][1,3]dioxol-4-yl)piperidin-1-yl)methyl)-1-((1-ethyl-1H-imidazol-5-yl)methyl)-1H-imidazol-5-yl)propanoic acid]
0.026 | CCn1cncc1Cn1c(/C=C/C(=O)O)nnc1CN1CCC(c2cccc3c2OC[C@@H](c2ccc(Cl)cc2)O3)CC1 [Compound 234a, (R,E)-3-(5-((4-(2-(4-chlorophenyl)-2,3-dihydrobenzo[b][1,4]dioxin-5-yl)piperidin-1-yl)methyl)-4-((1-ethyl-1H-imidazol-5-yl)methyl)-4H-1,2,4-triazol-3-yl)acrylic acid]
1.38 | Cc1cc(-c2nnc(C(F)(F)F)[nH]2)cnc1CN1CCC(c2cccc3c2O[C@@](C)(c2ccc(C#N)cc2F)O3)CC1 [Compound 286, 3-fluoro-4-[(2S)-2-methyl-4-[1-({3-methyl-5-[5-(trifluoromethyl)-4H-1,2,4-triazol-3-yl]pyridin-2-yl}methyl)piperidin-4-yl]-2H-1,3-benzodioxol-2-yl]benzonitrile]
0.086 | CC1(c2ccc(Cl)cc2F)Oc2cccc(C3CCN(Cc4ncc(/C=C/C(=O)O)n4C[C@@H]4CCOC4)CC3)c2O1 (stereo partly drawn) [Compound 156, (E)-3-(2-((4-(2-(4-chloro-2-fluorophenyl)-2-methylbenzo[d][1,3]dioxol-4-yl)piperidin-1-yl)methyl)-1-(((S)-tetrahydrofuran-3-yl)methyl)-1H-imidazol-5-yl)acrylic acid]
11 | Cc1cc(-c2noc(=O)[nH]2)cnc1CN1CCC(c2cccc3c2OC(C)(c2ccc(Cl)cc2F)O3)CC1 (stereo not shown) [Compound 252, 3-(6-((4-(2-(4-chloro-2-fluorophenyl)-2-methylbenzo[d][1,3]dioxol-4-yl)piperidin-1-yl)methyl)-5-methylpyridin-3-yl)-1,2,4-oxadiazol-5(4H)-one]
0.12 | COc1cccc(Cn2c(/C=C/C(=O)O)cnc2CN2CCC(c3cccc4c3OC(C)(c3ccc(Cl)cc3F)O4)CC2)c1 (stereo not shown) [Compound 149, (E)-3-(2-((4-(2-(4-chloro-2-fluorophenyl)-2-methylbenzo[d][1,3]dioxol-4-yl)piperidin-1-yl)methyl)-1-(3-methoxybenzyl)-1H-imidazol-5-yl)acrylic acid]
0.069 | COC1(Cn2c(/C=C/C(=O)O)cnc2CN2CCC(c3cccc4c3OC(C)(c3ccc(Cl)cc3F)O4)CC2)CCC1 (stereo not shown) [Compound 166, (E)-3-(2-((4-(2-(4-chloro-2-fluorophenyl)-2-methylbenzo[d][1,3]dioxol-4-yl)piperidin-1-yl)methyl)-1-((1-methoxycyclobutyl)methyl)-1H-imidazol-5-yl)acrylic acid]
109 | O=C(O)/C=C/c1ccc(CN2CCC(c3cccc(OCc4ccc(Cl)cc4F)n3)CC2)nc1 [Compound 123, (E)-3-(6-((4-(6-((4-chloro-2-fluorobenzyl)oxy)pyridin-2-yl)piperidin-1-yl)methyl)pyridin-3-yl)acrylic acid]
4.2 | O=C(O)/C=C/c1cnc(CN2CCC(c3cccc(OCc4ccc(Cl)cc4F)n3)CC2)n1CC1CCCO1 (stereo not shown) [Compound 213, (E)-3-(2-((4-(6-((4-chloro-2-fluorobenzyl)oxy)pyridin-2-yl)piperidin-1-yl)methyl)-1-((tetrahydrofuran-2-yl)methyl)-1H-imidazol-5-yl)acrylic acid]
2.1 | COCCn1c(/C=C(\C)C(=O)O)nnc1CN1CCC(c2cccc(OCc3ccc(Cl)cc3F)n2)CC1 [Compound 224, (E)-3-(5-((4-(6-((4-chloro-2-fluorobenzyl)oxy)pyridin-2-yl)piperidin-1-yl)methyl)-4-(2-methoxyethyl)-4H-1,2,4-triazol-3-yl)-2-methylacrylic acid]
> 1000 | O=C(O)CCc1ccc(CN2CCC(c3cccc(OCc4ccc(Cl)cc4F)n3)CC2)c(=O)[nH]1 [Compound 121, 3-(5-((4-(6-((4-chloro-2-fluorobenzyl)oxy)pyridin-2-yl)piperidin-1-yl)methyl)-6-oxo-1,6-dihydropyridin-2-yl)propanoic acid]
7.7 | COCCc1cc(-c2noc(=O)[nH]2)cnc1CN1CCC(c2cccc3c2OC(C)(c2ccc(Cl)cc2F)O3)CC1 (stereo not shown) [Compound 268, 3-[6-({4-[2-(4-chloro-2-fluorophenyl)-2-methyl-2H-1,3-benzodioxol-4-yl]piperidin-1-yl}methyl)-5-(2-methoxyethyl)pyridin-3-yl]-4,5-dihydro-1,2,4-oxadiazol-5-one]

Structure (SMILES) | EC50 [nM]
CC1(c2ccc(Cl)cc2F)Oc2cccc(C3CCN(Cc4ncc(/C=C/C(=O)O)n4CCOC(F)F)CC3)c2O1 (stereo not shown) [Compound 168, (E)-3-(2-((4-(2-(4-chloro-2-fluorophenyl)-2-methylbenzo[d][1,3]dioxol-4-yl)piperidin-1-yl)methyl)-1-(2-(difluoromethoxy)ethyl)-1H-imidazol-5-yl)acrylic acid] | 0.046
